Test results reported in ChEMBL document CHEMBL1126166, “Synthesis of the -phosphonic acid analogue of kainic acid” (Bioorg Med Chem Lett, 1992).

Biological target: Glutamate receptor ionotropic, kainate (Rattus norvegicus) (UniProt P22756+Q01812+P42260+P42264+Q63273)
Assay: Compound was evaluated for the inhibition of kainate receptor binding at 10 uM
Format: protein-complex assay

- inhibition: 77%
Compound: C=C(C)[C@H]1CN[C@H](C(=O)O)[C@H]1CP(=O)(O)O
